In ChEMBL document CHEMBL3044853, “Anti-HIV-1 and cytotoxicity studies of piperidyl-thienyl chalcones and their 2-pyrazoline derivatives” (Med Chem Res, 2012):

How the values were obtained:
[1] = system: Human immunodeficiency virus 1; assay: Antiviral activity against 0.1 MOI of Human immunodeficiency virus 1 LAI infected human PBM cells after 2 to 3 hr by scintillation counting analysis in presence of [3H]thymidine-5'-triphosphate; type: functional, organism-based; details: PBMC
PBMC = assay: Cytotoxicity against Homo sapiens (human) PBMCs after 5 days celltiter 96 aqueous assay; type: cell-based; details: 120 h
CCRF-CEM = assay: Cytotoxicity against Homo sapiens (human) CEM cells after 5 days celltiter 96 aqueous assay; type: cell-based; details: 120 h
Vero = assay: Cytotoxicity against Chlorocebus aethiops (African green monkey) Vero cells after 5 days celltiter 96 aqueous assay; type: cell-based; details: Chlorocebus sabaeus, 120 h

SMILES | EC50 [1] [µM] | EC90 [1] [µM] | IC50 (PBMC) [µM] | IC50 (CCRF-CEM) [µM] | IC50 (Vero) [µM]
O=C(/C=C/c1ccc(N2CCCCC2)cc1)c1ccc(Br)s1 | 46.5 | ≥ 100 | > 100 | 52.8 | 69.5
O=C(/C=C/c1ccc(N2CCCCC2)cc1)c1cc(Cl)sc1Cl | 11.8 | 24.7 | 42.8 | 15 | 24.9
Ic1ccc(C2=NNC(c3ccc(N4CCCCC4)cc3)C2)s1 (configuration not stated) | 14.5 | 43.6 | > 100 | 36.5 | 15.9
Cc1ccc(C(=O)/C=C/c2ccc(N3CCCCC3)cc2)s1 | 17.9 | 30.9 | 77.8 | 21.2 | 50.5
O=C(/C=C/c1ccc(N2CCCCC2)cc1)c1sccc1Cl | 8.4 | 29 | 32.1 | 12.2 | 18.1
Cc1ccsc1C(=O)/C=C/c1ccc(N2CCCCC2)cc1 | 2.5 | 19.6 | 26.4 | 9.9 | 63.9
Cc1csc(C(=O)/C=C/c2ccc(N3CCCCC3)cc2)c1 | 11.6 | 23.1 | 68.8 | 33.3 | 56.3
Cc1cc(C2=NNC(c3ccc(N4CCCCC4)cc3)C2)c(C)s1 (configuration not stated) | 16.9 | 29.8 | 77.5 | 20.1 | 83.4
O=C(/C=C/c1ccc(N2CCCCC2)cc1)c1ccc(Cl)s1 | 35.4 | ≥ 100 | > 100 | 41.5 | 32.4
O=C(/C=C/c1ccc(N2CCCCC2)cc1)c1sccc1Br | 5.8 | 27.8 | 39.3 | 12.5 | 18
O=C(/C=C/c1ccc(N2CCCCC2)cc1)c1ccc(I)s1 | 11.6 | ≥ 100 | > 100 | 22 | 56.5
Clc1cc(C2=NNC(c3ccc(N4CCCCC4)cc3)C2)c(Cl)s1 (configuration not stated) | 32.5 | > 100 | 59 | 37.7 | 53.9
O=C(/C=C/c1ccc(N2CCCCC2)cc1)c1ccsc1 | 56 | ≥ 100 | > 100 | 32.1 | 34.4
O=C(/C=C/c1ccc(N2CCCCC2)cc1)c1cccs1 | 73.8 | ≥ 100 | > 100 | 11.6 | 65.5
Brc1ccc(C2=NNC(c3ccc(N4CCCCC4)cc3)C2)s1 (configuration not stated) | 9 | 33.3 | 80 | 21.5 | 25.8
Cc1cn([C@H]2C[C@H](N=[N+]=[N-])[C@@H](CO)O2)c(=O)[nH]c1=O [ZIDOVUDINE] |  | 0.026 | > 100 |  | 
Cc1cc(C(=O)/C=C/c2ccc(N3CCCCC3)cc2)c(C)s1 | 11.6 | 23.6 | 38.2 | 16.6 | 42.3

Now from value to compound, other results behind:

EC50 [1] [µM] | EC90 [1] [µM] | SMILES | IC50 (PBMC) [µM] | IC50 (CCRF-CEM) [µM] | IC50 (Vero) [µM]
17.4 | 30.4 | Brc1ccsc1C1=NNC(c2ccc(N3CCCCC3)cc2)C1 (configuration not stated) | 57 | 31.6 | 24.8
11.3 | ≥ 100 | c1cc(C2=NNC(c3ccc(N4CCCCC4)cc3)C2)cs1 (configuration not stated) | > 100 | 27 | 29.5
7.3 | 26.8 | c1csc(C2=NNC(c3ccc(N4CCCCC4)cc3)C2)c1 (configuration not stated) | 20.8 | 6.9 | 3.2
2.4 | 13.1 | Clc1ccsc1C1=NNC(c2ccc(N3CCCCC3)cc2)C1 (configuration not stated) | 34.2 | 10.2 | 31.6
13 | 24.9 | Cc1csc(C2=NNC(c3ccc(N4CCCCC4)cc3)C2)c1 (configuration not stated) | 24.4 | 16.3 | 31.6
75.3 | > 100 | Clc1ccc(C2=NNC(c3ccc(N4CCCCC4)cc3)C2)s1 (configuration not stated) | > 100 | > 100 | > 100
5.1 | 15.5 | Cc1ccsc1C1=NNC(c2ccc(N3CCCCC3)cc2)C1 (configuration not stated) | 11 | 2.3 | 11.4
7.2 | 52.9 | Cc1ccc(C2=NNC(c3ccc(N4CCCCC4)cc3)C2)s1 (configuration not stated) | 86.4 | 15.3 | 52
